According to patent US20100298141A1, “SUBSTITUTED PYRIDINE N-OXIDE HERBICIDES” (E. I. DU PONT DE NEMOURS AND COMPANY, priority 2007, published 2010):

Experiments:
crabgrass = assay: Test A pre-/postemergence greenhouse test; format: in vivo, Digitaria sanguinalis; conditions: for Plant response rating, Crabgrass, Large: 0 to 100 scale where 0 is no effect and 100 is complete control; for Crabgrass, Large plant response rating: 0 to 100 scale
In short: (§1)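 Untreated controls served as the reference for visual injury ratings taken about ten days after spraying. The non-phytotoxic solvent/surfactant formulation was applied preemergence to seeded loam and sand and postemergence to plants two to ten cm high.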

giant foxtail [1] = assay: Test A pre-/postemergence greenhouse test; format: in vivo, Setaria faberi; conditions: for Plant response rating, Foxtail, Giant: 0 to 100 scale where 0 is no effect and 100 is complete control; for Foxtail, Giant plant response rating: 0 to 100 scale
In short: as §1

morningglory [2] = assay: Test A pre-/postemergence greenhouse test; format: in vivo, Ipomoea spp.; conditions: for Plant response rating, Morningglory: 0 to 100 scale where 0 is no effect and 100 is complete control; for Morningglory plant response rating: 0 to 100 scale
In short: as §1

wheat = assay: Test A pre-/postemergence greenhouse test; format: in vivo, Triticum aestivum; conditions: for Plant response rating, Wheat: 0 to 100 scale where 0 is no effect and 100 is complete control; for Wheat plant response rating: 0 to 100 scale
In short: as §1

downy brome = assay: Test C pre-/postemergence test; format: in vivo, Bromus tectorum
In short: (§2)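 Test chemicals were formulated with surfactant in a non-phytotoxic solvent and sprayed both on freshly planted seeds (preemergence) and on 1- to 4-leaf plants of 2–18 cm (postemergence). Flooded-paddy pots received compound directly into 3 cm of standing water, maintained for the test.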

cocklebur = assay: Test C pre-/postemergence test; format: in vivo, Xanthium strumarium; conditions: for Cocklebur plant response rating: preemergence, scale 0 (no effect) to 100 (complete control)
In short: as §2

corn = assay: Test C pre-/postemergence test; format: in vivo, Zea mays
In short: as §2

woolly cupgrass = assay: Test C pre-/postemergence test; format: in vivo, Eriochloa villosa
In short: as §2

giant foxtail [3] = assay: Test C pre-/postemergence test; format: in vivo, Setaria faberii
In short: as §2

Goosegrass = assay: Test C pre-/postemergence test; format: in vivo, Eleusin indica
In short: as §2

johnsongrass = assay: Test C pre-/postemergence test; format: in vivo, Sorghum halepense
In short: as §2

lambsquarters = assay: Test C pre-/postemergence test; format: in vivo, Chenopodium album
In short: as §2

morningglory [4] = assay: Test C pre-/postemergence test; format: in vivo, Ipomoea coccinea
In short: as §2

yellow nutsedge = assay: Test C pre-/postemergence test; format: in vivo, Cyperus esculentus
In short: as §2

common ragweed = assay: Test C pre-/postemergence test; format: in vivo, Ambrosia elation
In short: as §2

soybean = assay: Test C pre-/postemergence test; format: in vivo, Glycine max
In short: as §2

umbrella sedge = assay: Test C flooded paddy test; format: in vivo, Cyperus difformis; conditions: Flood
In short: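 Flooded 3 cm over soil; compound into paddy water; depth kept constant. Greenhouse 13–15 d.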

[5] = Postemergence, 500 g ai/ha, 0 is no effect, 100 is complete control
[6] = Preemergence, 125 g ai/ha, 0 no effect, 100 complete control
[7] = 62 g ai/ha, Preemergence, scale 0 to 100
[8] = 125 g ai/ha, preemergence, scale 0 (no effect) to 100 (complete control)
[9] = Preemergence, 31 g ai/ha, scale 0 to 100 (0 no effect, 100 complete control)
[10] = preemergence, 250 g ai/ha, scale 0 (no effect) to 100 (complete control)

SMILES: CC(Oc1c(C[S+]([O-])c2cccc[n+]2[O-])c(C(F)(F)F)nn1C)C(F)(F)F (centres unmarked) [Compound 77]
- Plant response rating, Crabgrass, Large (crabgrass; Postemergence, 125 g ai/ha): 60
- Crabgrass, Large plant response rating (crabgrass; [5]): 90
- Crabgrass, Large plant response rating (crabgrass; [6]): 80
- Plant response rating, Crabgrass, Large (crabgrass; Preemergence, 500 g ai/ha): 100
- Plant response rating, Foxtail, Giant (giant foxtail [1]; Postemergence, 125 g ai/ha): 80
- Foxtail, Giant plant response rating (giant foxtail [1]; [5]): 90
- Foxtail, Giant plant response rating (giant foxtail [1]; [6]): 90
- Plant response rating, Foxtail, Giant (giant foxtail [1]; Preemergence, 500 g ai/ha): 100
- Plant response rating, Morningglory (morningglory [2]; Postemergence, 125 g ai/ha): 70
- Morningglory plant response rating (morningglory [2]; [5]): 90
- Morningglory plant response rating (morningglory [2]; [6]): 70
- Plant response rating, Morningglory (morningglory [2]; Preemergence, 500 g ai/ha): 100
- Plant response rating, Wheat (wheat; Postemergence, 125 g ai/ha): 50
- Wheat plant response rating (wheat; [5]): 70
- Wheat plant response rating (wheat; [6]): 50
- Plant response rating, Wheat (wheat; Preemergence, 500 g ai/ha): 100
- Bromegrass, Downy plant response rating (downy brome; [7]): 45
- Bromegrass, Downy plant response rating (downy brome; [8]): 70
- Plant response rating, Bromegrass, Downy (downy brome; [9]): 0
- Bromegrass, Downy plant response rating (downy brome; [10]): 100
- Cocklebur plant response rating (cocklebur; 125 g ai/ha): 0
- Plant response rating, Cocklebur (cocklebur; [9]): 0
- Cocklebur plant response rating (cocklebur; 250 g ai/ha): 0
- Corn plant response rating (corn; [7]): 95
- Corn plant response rating (corn; [8]): 100
- Plant response rating, Corn (corn; [9]): 40
- Corn plant response rating (corn; [10]): 100
- Cupgrass, Woolly plant response rating (woolly cupgrass; [7]): 98
- Cupgrass, Woolly plant response rating (woolly cupgrass; [8]): 100
- Plant response rating, Cupgrass, Woolly (woolly cupgrass; [9]): 80
- Cupgrass, Woolly plant response rating (woolly cupgrass; [10]): 100
- Foxtail, Giant plant response rating (giant foxtail [3]; [7]): 100
- Foxtail, Giant plant response rating (giant foxtail [3]; [8]): 100
- Plant response rating, Foxtail, Giant (giant foxtail [3]; [9]): 80
- Foxtail, Giant plant response rating (giant foxtail [3]; [10]): 100
- Goosegrass plant response rating (Goosegrass; [7]): 100
- Goosegrass plant response rating (Goosegrass; [8]): 100
- Plant response rating, Goosegrass (Goosegrass; [9]): 95
- Goosegrass plant response rating (Goosegrass; [10]): 100
- Johnsongrass plant response rating (johnsongrass; [7]): 100
- Johnsongrass plant response rating (johnsongrass; [8]): 100
- Plant response rating, Johnsongrass (johnsongrass; [9]): 60
- Johnsongrass plant response rating (johnsongrass; [10]): 100
- Lambsquarters plant response rating (lambsquarters; [7]): 100
- Lambsquarters plant response rating (lambsquarters; [8]): 100
- Plant response rating, Lambsquarters (lambsquarters; [9]): 100
- Lambsquarters plant response rating (lambsquarters; [10]): 100
- Morningglory plant response rating (morningglory [4]; [7]): 65
- Morningglory plant response rating (morningglory [4]; [8]): 100
- Plant response rating, Morningglory (morningglory [4]; [9]): 60
- Morningglory plant response rating (morningglory [4]; [10]): 100
- Nutsedge, Yellow plant response rating (yellow nutsedge; [7]): 100
- Nutsedge, Yellow plant response rating (yellow nutsedge; [8]): 100
- Plant response rating, Nutsedge, Yellow (yellow nutsedge; [9]): 50
- Nutsedge, Yellow plant response rating (yellow nutsedge; [10]): 100
- Ragweed plant response rating (common ragweed; [7]): 100
- Ragweed plant response rating (common ragweed; [8]): 100
- Plant response rating, Ragweed (common ragweed; [9]): 100
- Ragweed plant response rating (common ragweed; [10]): 100
- Soybean plant response rating (soybean; [7]): 45
- Soybean plant response rating (soybean; [8]): 70
- Plant response rating, Soybean (soybean; [9]): 40
- Soybean plant response rating (soybean; [10]): 100
- Plant response rating, Sedge, Umbrella (umbrella sedge; 62 g ai/ha, scale 0 to 100 (0 no effect, 100 complete control)): 100
- Plant response rating, Sedge, Umbrella (umbrella sedge; 250 g ai/ha, scale 0 to 100, 0 no effect, 100 complete control, 13 to 15 days): 100
